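48-hour exposure; five concentrations; linearly interpolated endpoints. GI50 marks 50% less growth. At the TGI there is no net growth.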 *1 amine or outer side, *2 acyl side, *3 side chain or, on linkers, in order; H or OH if unused. Where a SMILES comes first, the peptide text is derived from it. [ ]: non-standard residue; d: D form. ξ: configuration not given here. X21 = CC[C@@H](C)C(N[*:1])C(=O)[*:2]; ξR = N=C(N)NCCCC(N)C(=O)O; ξI = CCC(C)C(N)C(=O)O; ξL = CC(C)CC(N)C(=O)O; ξK = NCCCCC(N)C(=O)O; ξV = CC(C)C(N)C(=O)O; ξA = CC(N)C(=O)O
Columns and labels:
Assay in all cases: NCI tumour cell line growth inhibition, 48 h
[1] = test system: COLO 205 colon
[2] = test system: MOLT-4 leukemia
[3] = test system: SNB-75 CNS
[4] = test system: NCI-H226 lung
[5] = test system: SK-MEL-2 melanoma
[6] = test system: TK-10 renal
[7] = test system: UACC-257 melanoma

Row | SMILES | GI50 [1] [µM] | TGI [1] [µM] | GI50 [2] [µM] | TGI [2] [µM] | GI50 [3] [µM] | TGI [3] [µM] | GI50 [4] [µM] | TGI [4] [µM] | GI50 [5] [µM] | TGI [5] [µM] | GI50 [6] [µM] | TGI [6] [µM] | GI50 [7] [µM] | TGI [7] [µM]
1 | CCCN(CCSSCCNc1nc(N(C)O)nc(N(C)O)n1)c1nc(N(C)O)nc(N(C)O)n1 | 2.9 | > 100 | 3.72 | > 100 | 24.4 | > 100 | 7.76 | > 100 | 18.6 | > 100 | 3.25 | > 100 | 22.7 | > 100
2 | CCSc1nnc(-c2ccc3ccccc3c2O)n1-c1ccc(Cl)cc1 | 47.4 | > 100 | – | – | 65.1 | > 100 | 7.46 | > 100 | > 100 | > 100 | – | – | > 100 | > 100
3 | COc1cc(OC)c(C(=O)/C=C/c2cccc(OC(C)=O)c2)cc1CC=C(C)C | 6.96 | 14.2 | 7.64 | 43.6 | 4.68 | 11.8 | 12.8 | 40.7 | 8.9 | 35.6 | 23.6 | > 50 | 10.4 | 36.8
4 | C=CC1=C(C)C2=NC1=CC1=NC(=CC3=C(C)C4=C(O)C(C(=O)OC)C(=C5NC(=C2)C(C)C5CCC(=O)OC)C4=N3)C(CC)=C1C (stereo unspecified) | – | > 100 | – | – | – | > 100 | – | > 100 | – | > 100 | – | > 100 | – | > 100
5 | COc1ccc(-c2csc(NC(=O)c3cc(O)c(O)c(O)c3)n2)cc1 | 10.8 | > 33.3 | 2.3 | > 33.3 | 6.32 | > 33.3 | 9.59 | > 33.3 | – | – | 6.36 | > 33.3 | 11.9 | > 33.3
6 | OCc1ccc(N(CCN2CCCC2)Cc2ccc(F)cc2)cc1Cl | 8.66 | 21.5 | 25.2 | 62.7 | 12.5 | 35.3 | 1.39 | 3.85 | 17 | 33 | 15 | 34.8 | 14.7 | 29
7 | O=C1CCS/C(=N\S(=O)(=O)c2ccc(N3N=C4c5ccccc5CC4C3c3cccs3)cc2)N1C(=O)c1ccccc1 (stereo unspecified) | 66.5 | > 100 | 5.04 | 77.9 | > 100 | > 100 | 15.9 | 41 | 29.4 | > 100 | 24.5 | 54.7 | 0.334 | 20.6
8 | C=C1C(=O)O[C@H]2[C@H]1CC/C(Cn1cc(-c3cc(C)c(C)cc3C)nn1)=C\CC[C@@]1(C)O[C@@H]21 | 0.643 | 2.15 | 2.38 | 7.34 | 0.521 | 8.45 | 1.46 | 3.07 | 1.75 | 3.59 | 1.46 | 2.83 | – | –
9 | NC(=O)c1ccc2nc3c(n2c1)C(=O)C(=O)c1ccccc1-3 | 1.91 | 3.82 | 1.02 | 4.21 | 1.56 | 2.92 | 1.71 | 3.8 | 0.633 | 1.91 | 1.82 | 3.23 | 0.57 | 1.78
10 | CCC(C)C1NC(=O)C(CC(C)C)NC(=O)C(C)NC(=O)C(C(C)C)NC(=O)C(CCCCN)NC(=O)C(CC(C)C)NC(=O)C(C(C)C)NC(=O)[C@H](C)NC(=O)C(C(C)CC)NC(=O)C(CCCN=C(N)N)NC(=O)C(CCCCN)NC(=O)C(CCCN=C(N)N)NC(=O)C(CCCCN)NC(=O)C([C@H](C)CC)NC(=O)C(CCCCN)NC1=O (stereo partly specified) (cyclo(A[ξV][ξL][ξK][ξV][ξA][ξL][ξI][ξK][X21][ξK][ξR][ξK][ξR][ξI])) | 1.49 | 3.85 | 0.752 | 2.82 | 1.34 | 3.24 | – | – | 1.72 | 4.09 | 1.62 | 3.82 | 0.476 | 2.58
11 | Nc1ncnc2c1cnn2Cc1ccc(Cl)cc1 | – | > 100 | – | > 100 | – | > 100 | – | > 100 | > 100 | > 100 | – | > 100 | – | > 100
12 | O=C(Nc1cccc(-n2cc(-c3ccncc3)c(-c3ccc(O)c(Cl)c3)n2)c1)Nc1cccc(C(F)(F)F)c1 | 1.96 | 3.73 | 1.68 | 4.94 | 1.43 | 9.75 | 2.52 | 9.02 | 2.35 | 4.75 | 3.29 | 9.3 | 2.35 | 5.48
13 | CC(C)Nc1ncc2cc(Oc3ccc(F)cc3F)c(=O)n(C)c2n1 | > 25 | > 25 | > 25 | > 25 | > 25 | > 25 | > 25 | > 25 | > 25 | > 25 | 15.8 | > 25 | > 25 | > 25
14 | CCOC(=O)Nc1nc2c(C)cccc2s1 | > 100 | > 100 | 38.1 | > 100 | 30.9 | > 100 | > 100 | > 100 | 85.8 | > 100 | 90.9 | > 100 | 39.8 | > 100
15 | CN(C)CCCn1c2nc(=O)[nH]c(=O)c-2nc2cc(Cl)c(Cl)cc21 | 1.35 | 2.83 | 4.35 | 22.8 | 18 | 32.5 | 2.58 | 9.28 | 4.81 | 16.1 | 4.62 | 14.1 | 2.23 | 5.66
16 | Cc1[nH]nc2c1N=C(c1ccccc1Cl)c1cc([N+](=O)[O-])ccc1N2 | 0.981 | > 25 | 14.8 | > 25 | 0.0215 | – | 4.08 | > 19.6 | 0.126 | > 25 | 9.23 | > 25 | > 25 | > 25
17 | CCOC(=O)c1cc(C(=O)c2cc(OC)c(OC)c(OC)c2)n2ccccc12 | 0.0588 | 2.57 | 0.182 | > 100 | 0.0461 | 21.5 | 19.3 | > 100 | 0.169 | > 74.8 | 11.6 | > 100 | 35.1 | > 100
18 | NC(CC1=CCC=CC1)C(=O)O (stereo unspecified) | – | > 100 | – | > 100 | – | > 100 | – | – | – | > 100 | – | > 100 | – | > 100
19 | CCNCCCn1c2c(c3ccc([N+](=O)[O-])cc3c1=O)C(=O)c1cc(OC)cnc1-2 | 0.0874 | 1.67 | 0.029 | 0.25 | 0.126 | 1.54 | – | – | 0.349 | 1.9 | 0.294 | 1.47 | 0.157 | 0.92

Row | SMILES | GI50 [1] [µM] | TGI [1] [µM] | GI50 [2] [µM] | TGI [2] [µM] | GI50 [3] [µM] | TGI [3] [µM] | GI50 [4] [µM] | TGI [4] [µM] | GI50 [5] [µM] | TGI [5] [µM] | GI50 [6] [µM] | TGI [6] [µM] | GI50 [7] [µM] | TGI [7] [µM]
20 | Cc1cc(=O)oc2cc(OS(C)(=O)=O)ccc12 | – | > 100 | – | – | – | > 100 | – | > 100 | – | > 100 | – | > 100 | – | > 100
21 | C=C1C(=O)O[C@H]2[C@H]1CC/C(COC(=O)c1ccccc1)=C\CC[C@@]1(C)O[C@@H]21 | 1.37 | 3.14 | 2.14 | 7.57 | 5.7 | 18.7 | 1.62 | 3.74 | 1.94 | 4.02 | 2.03 | 3.98 | 1.51 | 3.37
22 | O=C(O)C1CCCCC1c1c2ccc(=O)cc-2oc2cc(O)ccc12 (stereo unspecified) | – | > 100 | – | > 100 | – | 72.1 | – | – | – | > 100 | – | > 100 | – | > 100
23 | O=C(COc1cccc(/C=C2\CSc3ccccc3C2=O)c1)c1ccc(Cl)cc1 | 2.89 | 7.35 | 1.07 | 3.44 | 5.04 | 22.4 | 4.43 | 16 | 1.76 | 3.45 | 1.88 | 4.42 | 2.68 | 6.85
24 | Clc1ccc(Nc2ccnc(NCCCNc3ccnc4cc(Cl)ccc34)n2)cc1 | – | – | – | – | 1.23 | 2.5 | – | – | 1.98 | 3.61 | 1.94 | 3.41 | 1.87 | 3.43
25 | CC(C)c1ccc(NC(=S)NC(=O)c2ccccc2)cc1 | – | 33.6 | – | 52.3 | – | – | – | – | – | 35.8 | – | 50.1 | – | 37.5
26 | CN1CCN(c2ccc(C(=O)Nc3cc(-c4cccc(NS(=O)(=O)c5ccccc5)c4)[nH]n3)cc2)CC1 | 4.28 | 14.1 | 3 | 12.5 | 1.61 | 11.1 | 12.6 | 40 | 6.85 | 20.2 | 12.4 | 26.7 | 11.2 | 27
27 | NC1=Nc2cc(OCCCN3Cc4ccccc4C3)c(OCC3CC3)cc2C12CCCC2 | 1.59 | 3.29 | 2.17 | 6.22 | 1.07 | 7.97 | 3.72 | 21 | 2.35 | 4.7 | 2.31 | 8.16 | 2.2 | 3.94
28 | O=C1CS/C(=N\S(=O)(=O)c2ccc(N3N=C4c5ccccc5CC4C3c3ccc(Cl)cc3)cc2)N1c1ccccc1 (stereo unspecified) | 1.73 | 16 | 17.2 | 40.7 | – | – | 45.1 | > 100 | > 100 | > 100 | 29.7 | > 100 | 92.9 | > 100
29 | Cn1c(=O)c(Oc2ccccc2)cc2cnc(NC3CCOCC3)nc21 | > 25 | > 25 | > 25 | > 25 | > 25 | > 25 | > 25 | > 25 | > 25 | > 25 | > 25 | > 25 | > 25 | > 25
30 | Cc1ccc(Sc2sc(-c3ccccc3)nc2[P+](c2ccccc2)(c2ccccc2)c2ccccc2)cc1 | 0.195 | 0.412 | 0.363 | 1.59 | 0.21 | 0.759 | – | – | 0.275 | 0.808 | 0.336 | 1.64 | 0.328 | 1.11
31 | C=C1C[C@@]2(C)C(CC[C@]3(C)C2CC=C2C4CC(C)(C)C[C@@H](OC(=O)/C(C)=C\C)[C@]4(C(=O)O)CC[C@]23C)C(C)(C)C1=O (stereo partly specified) | 3.59 | 17.6 | 2.91 | 24.8 | – | – | 2.23 | 6.16 | 5.93 | 24.4 | 4.57 | 17.9 | 3.53 | 16.4
32 | O=C(CC1C=CCS1(=O)=O)NCc1ccccc1 (stereo unspecified) | – | > 100 | – | > 100 | – | > 100 | – | > 100 | – | – | – | > 100 | – | > 100
33 | Cc1cc(N(CCCl)CCCl)ccc1/C=N/NC(=O)Cc1cc(=O)oc2cc(O)ccc12 | – | 36.7 | – | 50.4 | – | > 100 | – | 43.2 | – | > 100 | – | – | – | 58.1
34 | CC/C=C/c1cc2cc[nH]c2c2c1C(C)C[C@@H]2C (stereo partly specified) | – | 37.6 | – | 53.3 | – | 70.1 | – | 39 | – | – | – | > 100 | – | > 100
35 | N#Cc1c(N)nc(N2CCOCC2)c(C#N)c1-c1ccccc1Cl | 38.1 | > 100 | 34.2 | > 100 | 0.414 | 32.6 | 55.5 | > 100 | 41.9 | > 100 | – | – | 47.9 | > 100
36 | N#C/C(=C\c1ccc(Br)cc1)n1nnc2ccccc21 | 0.591 | 3.22 | 1.48 | 11.4 | – | – | 1.4 | 6.75 | 0.71 | 3.42 | 2.69 | 6.8 | 1.19 | 4.26
37 | Cc1cc2cn3c4cccnc4[nH]c(=O)c3c2cc1C | 1.65 | 3.18 | 2.25 | 4.53 | 1.43 | 3.08 | 11.2 | 28 | – | – | 2.27 | 3.91 | 1.67 | 3.41
